Columns and labels:
[1] = plasma protein binding, human; type: in vitro ADME; conditions: read-out: bound to plasma proteins
Procedure: (§1) In embodiments, the apilimod compound for use in the compositions and methods of the invention is the free base or dimesylate salt form, MW 610.7 (dimesylate salt); tPSA 83.1; pKa 5.39 (±0.03), 4.54 (±0.27); HBD 1. […] In embodiments, the apilimod compound for use in the compositions and methods of the invention is an active metabolite of apilimod. Six primary metabolites were identified in rat and human microsomal and hepatocyte stability studies. […] Tmax generally occurred within 1 or 2 hours after the oral dose, consistent with the […] of this compound from the circulation. […] The primary metabolites are short-lived in circulation. Both apilimod free base and the dimesylate salt are highly bound (>99%) to rat, dog and human plasma proteins.

CYP3A4 = CYP3A4 (Homo sapiens, UniProt P08684); assay: reaction phenotyping studies, CYP3A4; type: in vitro ADME
Procedure: as §1

osteoclast formation = conditions: in vitro assay; from WO 2005/000404; read-out: inhibitory activity against osteoclast formation, IC50; cited from earlier work
[2] = plasma protein binding, rat; type: in vitro ADME
Procedure: as §1

NPC1 fibroblasts = assay: HexB release lysosome exocytosis assay; type: cell-based, human; conditions: 24 hours treatment; FIG. 3
Procedure: NPC1 mutant patient skin fibroblasts have been used as a robust cellular model of NPC1 disease (Chen 2010, Xu M et al 2012, Xu M et al 2014) and these cells display a number of NPC-related defects including intracellular accumulation of cholesterol other lipids.
FIG. 3: the rate of lysosome exocytosis can be monitored by the measurement of the release of lysosomal proteins such as Hexosaminidase Subunit Beta(HexB). In FIG. 3, NPC1 fibroblasts were treated with apilimod for 24 hours, the HexB release lysosome exocytosis assay was performed as previously described (Xu et al 2012). The rate of HexB release from NPC1 was increased by apilimod treatment providing evidence for an increased rate of lysosome exocytosis likely leading to cholesterol lowering in NPC1 cells.
Shown in the figure are fluorescence microscopy images of the NPC1 cells treated with 0, 78, 156, and 625 nM apilimod. […] In FIG. 3, apilimod treatment of NPC1 fibroblasts can enhance the rate of lysosome exocytosis as one of the mechanisms for cells to clear lysosome storage of cholesterol and lipid accumulations in NPC.

[3] = plasma protein binding, dog; type: in vitro ADME; conditions: read-out: bound to plasma proteins
Procedure: as §1

Chain of CYP3A4 (P08684 whole entry): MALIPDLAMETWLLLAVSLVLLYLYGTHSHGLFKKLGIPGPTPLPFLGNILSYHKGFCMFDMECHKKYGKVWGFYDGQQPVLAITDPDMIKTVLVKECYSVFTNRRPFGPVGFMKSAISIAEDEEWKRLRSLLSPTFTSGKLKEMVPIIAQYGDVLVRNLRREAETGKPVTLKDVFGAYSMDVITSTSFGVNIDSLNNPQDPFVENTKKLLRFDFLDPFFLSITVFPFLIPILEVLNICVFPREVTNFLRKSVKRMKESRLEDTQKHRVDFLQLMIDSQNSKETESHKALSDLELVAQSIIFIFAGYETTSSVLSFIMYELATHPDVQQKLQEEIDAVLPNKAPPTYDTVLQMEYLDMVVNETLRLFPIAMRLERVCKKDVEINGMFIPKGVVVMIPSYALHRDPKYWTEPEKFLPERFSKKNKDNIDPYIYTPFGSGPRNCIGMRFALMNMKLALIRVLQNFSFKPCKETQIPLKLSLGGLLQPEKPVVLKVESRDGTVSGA

fraction unbound [1]: < 0.01
contribution of CYP3A4 to metabolism (CYP3A4): contribute to metabolism
fraction unbound [2]: < 0.01
fraction unbound [3]: < 0.01
SMILES: Cc1cccc(/C=N/Nc2cc(N3CCOCC3)nc(OCCc3ccccn3)n2)c1 [apilimod]
IC50 (osteoclast formation): 15 nM
rate of HexB release (lysosome exocytosis) (NPC1 fibroblasts): increased
